Reference: ChEMBL document CHEMBL5241112, “Insights into the recent progress in the medicinal chemistry of pyranopyrimidine analogs” (RSC Med Chem, 2022)
≈ marks a conversion by molar mass, not a printed value.

What was measured:
Penicillium italicum = assay: microbe, parasite or virus in culture; assay type: functional; settings: CECT 2294, dose 50 mg/ml, time 24 hrs, read-out: DIZ
Klebsiella pneumoniae = assay: Antibacterial activity against Klebsiella pneumoniae MGH 78578 assessed as diameter of inhibition zone at 50 mg/ml incubated for 24 hrs by paper disk diffusion method; assay type: functional; settings: read-out: DIZ
DNA gyrase = DNA gyrase (Escherichia coli, UniProt P0AES4+P0AES6); assay: Inhibition of Escherichia coli DNA gyrase; assay type: protein-complex assay
Aspergillus fumigatus [1] = assay: microbe, parasite or virus in culture; assay type: functional; settings: ATCC204305, dose 50 mg/ml, time 24 hrs, read-out: DIZ
[2] = test system: Staphylococcus epidermidis; assay: Antibacterial activity against Staphylococcus epidermidis ATCC12228 assessed as inhibition of bacterial growth incubated for 24 hrs by disk diffusion method; assay type: functional
[3] = Inhibition of Escherichia coli topoisomerase 4 assessed as reduction in decatenation
Escherichia coli [4] = assay: Antibacterial activity against Escherichia coli ATCC 25922 assessed as diameter of inhibition zone at 50 mg/ml incubated for 24 hrs by paper disk diffusion method; assay type: functional; settings: read-out: DIZ
Aspergillus fumigatus [5] = assay: Antifungal activity against Aspergillus fumigatus ATCC204305 assessed as inhibition of […] growth incubated for 24 hrs by disk diffusion method; assay type: functional
[6] = test system: Mycobacterium tuberculosis; assay: Antimicrobial activity against Mycobacterium tuberculosis H37Rv assessed reduction bacterial growth at 100 ug/ml incubated for 24 hrs by Lowensteine-Jensen method; assay type: functional; set-up: scale not given: the % may be the effect or the level left; settings: dose 100 µg/ml
Plasmodium falciparum = assay: microbe, parasite or virus in culture
Escherichia coli [7] = assay: Antibacterial activity against Escherichia coli MTCC 443 assessed as bacterial growth inhibition by broth microdilution method; assay type: functional
[8] = test system: Mycobacterium tuberculosis; assay: Antitubercular activity against Mycobacterium tuberculosis H37Rv assessed as bacterial growth inhibition at 250 ug/ml; assay type: functional
[9] = test system: Mycobacterium tuberculosis; assay: Antitubercular activity against Mycobacterium tuberculosis H37Rv assessed as bacterial growth inhibition at 100 ug/ml; assay type: functional
Serratia marcescens = assay: Antibacterial activity against Serratia marcescens assessed as diameter of inhibition zone by disc diffusion method; assay type: functional
Aspergillus ochraceus = assay: Antifungal activity against Aspergillus ochraceus assessed as diameter of inhibition zone by disc diffusion method; assay type: functional
Staphylococcus aureus = assay: Antibacterial activity against Staphylococcus aureus assessed as diameter of inhibition zone by disc diffusion method; assay type: functional
Penicillium chrysogenum = assay: Antifungal activity against Penicillium chrysogenum assessed as diameter of inhibition zone by disc diffusion method; assay type: functional
HT-29 = assay: Antiproliferative activity against human HT-29 cells assessed as reduction in cell viability by MTT assay; assay type: functional, cell-based
MDA-MB-231 = assay: cells; settings: Homo sapiens
PANC-1 = assay: Antiproliferative activity against human PANC-1 cells assessed as reduction in cell viability by MTT assay; assay type: functional, cell-based
Capra hircus [10] = organism: Capra hircus; assay: Inhibition of goat lens AR at 100 uM incubated for 10 mins in presence of NADPH by spectroscopic analysis
[11] = Antioxidant activity assessed as DPPH radical scavenging activity incubated for 20 mins by spectrophotometric analysis; assay type: functional; set-up: concentration or dose not given beside the values
[12] = Antioxidant activity assessed as hydroxyl radical scavenging activity incubated for 5 mins by spectrophotometric analysis; assay type: functional; set-up: concentration or dose not given beside the values
Capra hircus [13] = organism: Capra hircus; assay: Inhibition of goat lens AR assessed as gibbs binding free energy
[14] = Cytotoxicity against human HDF cells assessed as reduction in cell viability by MTT assay; assay type: toxicity, cell-based; settings: HDF cells (NHDF cell line)
[15] = Antioxidant activity assessed as trolox equivalent of ABTS radical scavenging activity and measured after 6 mins by UV-vis spectrophotometry; assay type: functional

Nc1nc(=S)[nH]c2c1C(c1ccc(Cl)cc1)C=C(c1cc3ccccc3oc1=O)O2 (configuration not stated)
zone of inhibition at 50000 µg/mL (Penicillium italicum): 16 mm
zone of inhibition at 50000 µg/mL (Klebsiella pneumoniae): 12 mm
IC50 (DNA gyrase): 0.00491 µM
zone of inhibition at 50000 µg/mL (Aspergillus fumigatus [1]): 10 mm
MIC [2]: 15.3 µg/mL (≈ 35.1 µM)
IC50 [3]: 0.341 µM
zone of inhibition at 50000 µg/mL (Escherichia coli [4]): 10 mm
MIC (Aspergillus fumigatus [5]): 15.5 µg/mL (≈ 35.6 µM)

CCOC(=O)C1=C(N)Oc2[nH]c(=O)[nH]c(=O)c2C1c1c(C)nn(-c2ccccc2)c1-n1ccnc1 (configuration not stated)
Activity [6]: 92%
IC50 (Plasmodium falciparum): 0.97 µg/mL (≈ 2.04 µM)
MIC (Escherichia coli [7]): 100 µg/mL (≈ 210 µM)
inhibition at 250 µg/mL [8]: 37%
inhibition at 100 µg/mL [9]: 30%

N#CCc1nc2c3c(ncn2n1)Oc1ccc2cc(Br)ccc2c1C3
diameter of the inhibition zone (DIZ) (Serratia marcescens): 23 mm
diameter of the inhibition zone (DIZ) (Aspergillus ochraceus): 17 mm
diameter of the inhibition zone (DIZ) (Staphylococcus aureus): 25 mm
diameter of the inhibition zone (DIZ) (Penicillium chrysogenum): 13 mm

COc1cc([C@@H]2c3cc4c(cc3[C@@H](O[C@@H]3O[C@@H]5CO[C@@H](C)O[C@H]5[C@H](O)[C@H]3O)[C@H]3COC(=O)[C@H]23)OCO4)cc(OC)c1O [ETOPOSIDE]
IC50 (HT-29): 25.6 µM
IC50 (MDA-MB-231): 30.6 µM
IC50 (PANC-1): 24.4 µM

Cc1nn(-c2ccccc2)c(Cl)c1C1c2[nH]c(=O)[nH]c(=O)c2Oc2c1c(=O)oc1ccccc21 (configuration not stated)
inhibition (Capra hircus [10]): 60%
Activity [11]: 59.1%
Activity [12]: 54.3%
deltaG (Capra hircus [13]): -10.4 kcal/mol

N#CC1=C(N)Oc2[nH]c(=O)[nH]c(=O)c2C12c1ccccc1-n1c2nc2ccccc2c1=O (configuration not stated)
IC50 [14]: > 100 µM
IC50 (HT-29): 23.7 µM

CCOC(=O)C1=C(N)Oc2[nH]c(=O)[nH]c(=O)c2C1[C@H](O)[C@@H](O)[C@H](O[C@H]1O[C@H](CO)[C@@H](O)[C@H](O)[C@H]1O)[C@H](O)CO (some centres not stated)
Activity [15]: 5.24 µM
